Test results from US6699505B2, “Method of increasing the efficacy of antibiotics by compexing with cyclodextrins” (Massachusetts Institute of Technology, priority 2000, dated 2004).

Assays:
[1] = system: B. forsythus; assay: Zone of inhibition of PLGA chips in wells of seeded agar plates; assay type: cell-based; details: for zone of inhibition of bacterial growth: PLGA chips 4 mm×5 mm×0.5 mm in wells, B. forsythus agar, anaerobic 37° C., measured daily
Source text: (§1) FIG. 1 is a graph charting the change in size of the zone of growth inhibition of the bacterium P. gingivalis over time. The antibiotic being tested (complexed or non-complexed) is applied to a specific point near or within an area of bacterial growth on an agar plate. The bioactive agent diffuses from the application point and causes lysis of already growing bacteria, or inhibition of growth of bacteria within the zone of diffusion. The diameter of bacterial lysis or growth inhibition is a measure of the potency of the bioactive agent. […] A relatively small zone of lysis or growth inhibition indicates a less biologically active agent.
(§2) Increased biological activity of the antibiotic chlorhexidine was tested by placing chips composed of chorhexidine (C) and clorhexidine digluconate (Cg) complexed with hydroxypropyl-β-cyclodextrin (H) or methylated β-cyclodextrin adjacent to a tooth in agar seeded with P. gingivalis or B. forsythus. The agar plates were incubated to allow growth of the bacterium for 12-15 days and the zone of inhibition of bacterial growth around each chip was measured. An increase in biological activity was measured by an increase in the size of the zone of inhibition around the chip containing the complexed antibiotic compared to the size of the zone around the chip containing the uncomplexed antibiotic.
(§3) More particularly, the method used the following steps:
(§4) Mix: 5 g Trypticase Soy Agar
(§5) 6.5 g Brain Heart Infusion
(§6) Autoclave mixture for 15 minutes at 121 degree Celsius.
(§7) Cool to 50 degrees Celsius for 1 hour.
(§8) Add: 12.5 mL defibrinated sheep blood.
(§9) 300 uL N-acetylmuramic acid (100x).
(§10) Prepared B. forsythus and P. gingivalis culture solution with an optical density of 1˜10^9 cells/mL.
(§11) Added 2 mL of bacteria culture into their respective agar solutions.
(§12) Pour 20 mL agar solution into 150 mm diameter petri dishes.
(§13) Place well former into petri dishes.
(§14) Allow agar to harden by cooling to room temperature for 1 hour.
(§15) Place petri dishes in anaerobic chamber at 37° C. in an atmosphere consisting of 80% nitrogen, 10% hydrogen, and 10% carbon dioxide for 2 days.
(§16) Place 4 mm×5 mm×0.5 mm PLGA chips composed of: Cg, C, C/H, Cg/M, M, and H into preformed wells.
(§17) Masses of each component based on 25 wt % of Cg with respect to a 10 mg chip.
(§18) Add MilliQ water into wells to keep chips hydrated.
(§19) Keep petri dishes in anaerobic chamber during entire experiment.
(§20) Measure zones of inhibition daily using electronic calipers from the center of the well.
(§21) Experiments done in triplicate.

[2] = system: P. gingivalis; assay: as above; assay type: cell-based; details: PLGA chips 4 mm×5 mm×0.5 mm in wells, anaerobic 37° C., measured daily
Source text: as §1, §2, §3, §4, §5, §6, §7, §8, §9, §10, §11, §12, §13, §14, §15, §16, §17, §18, §19, §20, §21

Structure (SMILES) | zone of inhibition ([1]; B. forsythus, FIG. 1 right panel) | zone of inhibition of bacterial growth [1] | zone of inhibition of bacterial growth [2]
[H]/N=C(\N/C(=N/[H])NCCCCCCNC(=N)NC(=N)Nc1ccc(Cl)cc1)Nc1ccc(Cl)cc1 [C, Chlorhexidine] | about 40 mm | statistically similar | statistically similar
N=C(NCCCCCCNC(=N)NC(=N)Nc1ccc(Cl)cc1)NC(=N)Nc1ccc(Cl)cc1.O=C(O)[C@H](O)[C@@H](O)[C@H](O)[C@H](O)CO.O=C(O)[C@H](O)[C@@H](O)[C@H](O)[C@H](O)CO [Cg, Chlorhexidine Digluconate] |  | statistically similar | statistically similar
